We go through 5 compounds from patent US10960037B2, “Method of treating neurological conditions with extract of Nerium species or Thevetia species” (PHOENIX BIOTECHNOLOGY, INC., priority 2010, dated 2021).

Data set [1] relates to healthy cortical pyramidal neurons in brain slices subjected to OGD. Nature of the data set: Brain slice-based oxygen-glucose deprivation (OGD) "stroke" neuroprotection assay. Type of data set: cell-based, Sprague-Dawley rat. To be noted: result in words. As for the experimental part:
Example 8 provides a detailed description of an in vitro assay used to evaluate the efficacy of the extract, or fraction thereof, or composition thereof, for the treatment of stroke-mediated ischemic neuronal injury. The assay is a brain slice-based assay for oxygen and glucose deprivation (OGD) used to induce 50% loss of healthy cortical neurons by 24 hours. The parent unfractionated SCF extract of Nerium species, e.g. Nerium oleander, is used as a positive control. The parent extract is then fractionated according to Example 13 to provide a fraction of extract of Nerium species. The fractions are analyzed according to Examples 6, 14 and 17.
Neocortical brain slices were prepared from PND 7 Sprague-Dawley rat pups. The cerebral cortex was dissected, cut into 400-μ-thick slices and transferred into a container containing cold artificial cerebrospinal fluid with 1 μM MK-801 before plating; MK-801 was not included in any subsequent procedures. To mimic ischemic injury using transient oxygen-glucose deprivation (OGD), slices from one hemisphere of each brain were exposed to glucose-free, N2-bubbled artificial cerebrospinal fluid for 7.5 min in a low 02 (0.5%) environment. The OGD slices were then plated side-by-side with control slices from the contralateral hemisphere on nitrocellulose or Millicell (Millipore) permeable membranes, which were prepared identically except for no OGD. Thirty minutes after plating, the brain slice pairs were transfected, transferred to 24-well plates, and incubated at 37° C. under 5% CO2 in humidified chambers. In each experiment, 5-6 minutes of oxygen-glucose deprivation (OGD) was used to induce >50% loss of healthy cortical neurons by 24 hrs. A set concentration (3 μM) of neriifolin (a cardiac glycoside) was used as the internal positive control. […] A neuroprotective composition can be used as described herein for oleandrin.
Coronal brain slices (250 μm thick) were prepared from postnatal day 10 Sprague-Dawley rat pups of either gender (Charles River) and established in organotypic culture. Animals were sacrificed in accordance with NIH guidelines and under Duke IACUC approval and oversight. […]
(§1) For all brain slice assays, numbers of healthy pyramidal neurons in the cortical regions of each brain slice were imaged on a Leica MZIIIFL fluorescence stereomicroscope. Cortical pyramidal neurons were readily identified by their characteristic positions and orientations in the cortical plate, and by their prominent extension of a single, apical dendrite radially towards the pial surface. […]

For data set [2], the system named is ARE target genes Gclm, Nqo1, Srx, Hmox1. Nature of the data set: ARE target gene expression by qPCR, rat co-cultures. Type of data set: cell-based. To be noted: for expression of ARE target genes: 6 h. As for the experimental part:
FIG. 17 depicts the results of expression assays for Fraction 0-4 and the individual triterpenes oleanolic acid, ursolic acid, betulinic acid and uvaol. “X” symbols denote concentrations of compounds which induced toxicity and for which recovery of residual mRNA was insufficient to support qPCR analysis. Rat primary corticostriatal co-cultures were treated for 6 h with Fraction 0-4 (in μg/ml) or oleanolic acid, ursolic acid, betulinic acid, or uvalol (all in μM) at the concentrations indicated, then harvested and processed for qPCR analysis of the ARE target genes shown. Quantitative RNA values were normalized to the GAPDH reference control and fold-expression changes are expressed relative to the DMSO-carrier only condition (“--”) set to a value of 1. Dark bars denote statistically significant differences with respect to the DMSO-carrier only control by a Student's t-test at p<0.05.
FIG. 18 depicts the results of expression assays for Fraction 0-4 and the individual triterpenes ursolic acid and betulinic acid at more similar concentration ranges. Rat primary corticostriatal co-cultures were treated for 6 h with Fraction 0-4 (in μg/ml) or ursolic acid and betulinic acid (in μM) at the concentrations indicated, then harvested and processed for qPCR analysis of the ARE target genes shown. Quantitative RNA values were normalized to the GAPDH reference control and fold-expression changes are expressed relative to the DMSO-carrier only condition (“--”) set to a value of 1. Dark blue bars denote statistically significant differences with respect to the DMSO-carrier only control by a Student's t-test at p<0.05.
For qPCR quantification of ARE target gene expression levels, cortical and striatal neurons were plated onto 96-well plates containing mature glial cultures and cultured for 96 h. Fraction 0-4 was added to cultures at the indicated concentrations for 6 h. At the end of the treatment period, cells were lysed and total RNA was isolated using Absolutely RNA mini-prep kits (Agilent Technologies/Stratagene). cDNA was generated using oligo dT primers and Superscript II reverse transcriptase (Invitrogen). Resulting cDNA was used for quantitative PCR of gene transcripts using SYBR Green Real-Time PCR Master Mix (Life Technologies) and the following mouse primers, for: Gclc (forward-5′ […]-3′ and reverse-5′-[…]-3′), Nqo1 (forward-5′-GCCCGCATGCAGATCCT-3′ and reverse 5′-[…]3′), Srx (forward-5′-[…]-3′ and reverse-5′-[…]-3′), and Hmox1 (forward-5′-[…]-3′ and reverse-5′-[…]-3′) (Integrated DNA Technologies). […] Each biological sample was measured in triplicate on a ViiA 7 real-time PCR instrument (Applied Biosystems); fold expression was calculated after normalization to corresponding control GAPDH levels.
On the technique in general: Quantitative PCR measures a nucleic acid by following its amplification.

Data set [3] relates to cortical neurons in "non-OGD" brain slices. The data set is described as follows: Non-stroke (non-OGD) brain slice assay. It counts as cell-based, Sprague-Dawley rat. To be noted: sliced and YFP-transfected, no OGD. As for the experimental part: Neuroprotective composition, oleandrin, PBI-05204 (an unfractionated SCF extract of Nerium oleander) or a fraction of the extract (PBI-04711) were tested on “nonstroked” brain slices; that is, ones that were sliced and transfected with YFP but not subjected to additional trauma via OGD. See experimental procedure outlined above.

Data set [4] has as its system cortical pyramidal neurons in APP-transfected brain slices. The data set is described as follows: Brain slice APP/Aβ-induced degeneration "Alzheimer's" assay. Type of data set: cell-based, rat. The settings on record: result in words.
Description: Example 9 provides a detailed description of an in vitro assay used to evaluate the efficacy of the extract for the treatment of Alzheimer's disease. The assay is a brain slice-based assay for APP/Aβ-induced (APP: amyloid precursor protein) degeneration of cortical pyramidal neurons. Upon cleavage by a secretase enzyme, the APP is reduced to Aβ peptides which are believed to be a causative factor in beta-amyloid plaque formation. Aβ proteins are associated with beta-amyloid plaque formation and are believed to be a hallmark if not etiologic factor in Alzheimer's disease. […]
The APP-WT brain slice-based Alzheimer's assay was repeated (Example 11) using fractions of the SCF extract of Nerium oleander. The number of healthy cortical neurons was determined following APP/Aβ-induced degeneration in the presence of varying amounts of fraction 0-4A of the SCF extract (0.01 to 100 μg/ml). […]
as §1

The test system of data set [5] is cortical and striatal neurons transfected with mutant htt. The data set is described as follows: Cortico-striatal co-culture "Huntington's disease" assay. Type of data set: cell-based. An excerpt:
Example 10 provides a detailed description of an assay used to evaluate the efficacy of the extract (or fraction thereof) for the treatment of Huntington's disease. Mutant htt protein is introduced via electroporation into high-density, mixed co-cultures of cortical neurons, striatal neurons, and glia. The striatal and cortical neurons are transfected with different color fluorescent proteins thereby facilitating the separate identification of the different types of neurons in the co-culture. The color fluorescent proteins are fluorescent and ‘emit’ color upon activation with a light source of appropriate wavelength. […] Such other agents can be used along with or in the absence of oleandrin or other cardiac glycoside.
In this assay, instead of using intact brain slices, mutant htt is introduced via electroporation into high-density, mixed co-cultures of cortical neurons, striatal neurons, and glia arrayed in 96-well plates. […] In this assay, over the course of 1-2 weeks in vitro, transfected mutant htt constructs induce the progressive degeneration of both striatal and cortical neurons that are subsequently quantified using automated image acquisition and object detection algorithms on the Cellomics Arrayscan VTI platform. […] In a full run, some 25,000 images are collected and analyzed in each cycle, 4 cycles per week. […]

Entries after “also recorded” stand apart in the source; their conditions may differ.

Take `CC1(C)CC[C@]2(C(=O)O)CC[C@]3(C)C(=CC[C@@H]4[C@@]5(C)CC[C@H](O)C(C)(C)[C@@H]5CC[C@]43C)[C@@H]2C1` [Oleanolic acid, oleanolic acid]: in data set [1], the cellular toxicity entry is listed as “not exhibited observable cellular toxicity” and the “neuroprotection in brain slice OGD assay” value is on record as “robust neuroprotection”. In addition, the “neuroprotection in brain slice OGD assay” value in data set [1] (listed as OA) is “accounts for a majority of the neuroprotective activity; also recorded: substantially higher activity than UA”. In addition, the “expression of ARE target genes” value in data set [2] is listed as “robust upregulation of canonical ARE target genes”.
For the compound `CO[C@H]1[C@H](O)[C@H](O[C@H]2CC[C@@]3(C)[C@H](CC[C@@H]4[C@@H]3CC[C@]3(C)[C@@H](C5=CC(=O)OC5)CC[C@]43O)C2)O[C@@H](C)[C@@H]1O` [neriifolin], in data set [3], the “neuroprotection of non-OGD brain slices” value was “modest levels of neuroprotection”.
Turning to `CO[C@H]1C[C@H](O[C@H]2CC[C@@]3(C)[C@H](CC[C@@H]4[C@@H]3CC[C@]3(C)[C@@H](C5=CC(=O)OC5)[C@@H](OC(C)=O)C[C@]43O)C2)O[C@@H](C)[C@@H]1O` [Oleandrin, oleandrin], the “neuroprotection in APP brain slice assay” value in data set [4] is on record as “concentration-dependent neuroprotection”. The “potency relative to KW6002” value in data set [5] (FIGS. 3A-3D) is reported as around 100 fold. Also, in data set [5] (result in words), the “efficacy (surviving neurons) in cortico-striatal co-culture assay” value was “more effective than KW6002; also recorded: strongest hits; also recorded: on par with KW6002”.
Turning to `C[C@H]1[C@H](C)CC[C@]2(C(=O)O)CC[C@]3(C)C(=CC[C@@H]4[C@@]5(C)CC[C@H](O)C(C)(C)[C@@H]5CC[C@]43C)[C@H]12` [Ursolic acid, ursolic acid], the “neuroprotection in brain slice OGD assay” value in data set [1] (listed as UA) was “lower activity; also recorded: rise and fall in activity as concentration is increased”. For the same compound, the “expression of ARE target genes” value is “robust upregulation of canonical ARE target genes; also recorded: clear upregulation of Srx and Hmox1” in data set [2]; “due more so to the activity of UA than of OA or BA” in data set [2] (listed as UA).
As to `C=C(C)[C@@H]1CC[C@]2(C(=O)O)CC[C@]3(C)[C@H](CC[C@@H]4[C@@]5(C)CC[C@H](O)C(C)(C)[C@@H]5CC[C@]43C)[C@@H]12` [Betulinic acid, betulinic acid], the toxicity in co-cultures entry in data set [2] was “toxicity at higher concentrations”.
